Measured values published in PubChem BioAssay AID330 (DTP/NCI, 2004).
Inconclusive results and toxic doses are left out. How the source made its calls: active means survival T/C of 150% or more; inactive means T/C below 125% in these data.

Test system: P388 leukemia ip, CD2F1 mice, survival T/C
Assay: NCI In Vivo Anticancer Drug Screen. Data for tumor model P388 Leukemia (intraperitoneal) in CD2F1 (CDF1) mice
Details: endpoint: median survival time, schedule: Q01DX009 (ip), vehicle: distilled water + Tween-80, higher = longer survival
Method in brief: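 Mice carrying the transplanted tumor received test compound or vehicle. Survival was recorded in each group, and the value is the treated-group measurement divided by that of the vehicle-treated control group.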

Measured: T/C

O=C(CSC(=S)N1CCCCC1)c1ccccc1
inactive: dose: 12.5 mg/kg/injection 95 % of control | dose: 25.0 mg/kg/injection 101 % of control | dose: 50.0 mg/kg/injection 100 % of control | dose: 100.0 mg/kg/injection 101 % of control | dose: 200.0 mg/kg/injection 99 % of control
